# Experimental data published in paper PMC9851200, “Multiparameter phenotypic screening for endogenous TFEB and TFE3 translocation identifies novel chemical series modulating lysosome function” (Autophagy, 2022).
# Columns and labels:
# Assay type in all cases: binding
# [1] = molecular target: kinases (KINOMEscan panel) (Homo sapiens, UniProt Q9Y2K2)
# [2] = molecular target: kinases (KINOMEscan panel) (Homo sapiens, UniProt P0C264)
# [3] = molecular target: kinases (KINOMEscan panel) (Homo sapiens, UniProt Q13043)
# [4] = molecular target: kinases (KINOMEscan panel) (Homo sapiens, UniProt Q99683)
# [5] = molecular target: kinases (KINOMEscan panel) (Homo sapiens, UniProt P27361)
# [6] = molecular target: kinases (KINOMEscan panel) (Homo sapiens, UniProt Q13188)
# [7] = molecular target: kinases (KINOMEscan panel) (Homo sapiens, UniProt P51812)
# Sequence of kinases (KINOMEscan panel) (Homo sapiens, UniProt P51812) (P51812 whole entry): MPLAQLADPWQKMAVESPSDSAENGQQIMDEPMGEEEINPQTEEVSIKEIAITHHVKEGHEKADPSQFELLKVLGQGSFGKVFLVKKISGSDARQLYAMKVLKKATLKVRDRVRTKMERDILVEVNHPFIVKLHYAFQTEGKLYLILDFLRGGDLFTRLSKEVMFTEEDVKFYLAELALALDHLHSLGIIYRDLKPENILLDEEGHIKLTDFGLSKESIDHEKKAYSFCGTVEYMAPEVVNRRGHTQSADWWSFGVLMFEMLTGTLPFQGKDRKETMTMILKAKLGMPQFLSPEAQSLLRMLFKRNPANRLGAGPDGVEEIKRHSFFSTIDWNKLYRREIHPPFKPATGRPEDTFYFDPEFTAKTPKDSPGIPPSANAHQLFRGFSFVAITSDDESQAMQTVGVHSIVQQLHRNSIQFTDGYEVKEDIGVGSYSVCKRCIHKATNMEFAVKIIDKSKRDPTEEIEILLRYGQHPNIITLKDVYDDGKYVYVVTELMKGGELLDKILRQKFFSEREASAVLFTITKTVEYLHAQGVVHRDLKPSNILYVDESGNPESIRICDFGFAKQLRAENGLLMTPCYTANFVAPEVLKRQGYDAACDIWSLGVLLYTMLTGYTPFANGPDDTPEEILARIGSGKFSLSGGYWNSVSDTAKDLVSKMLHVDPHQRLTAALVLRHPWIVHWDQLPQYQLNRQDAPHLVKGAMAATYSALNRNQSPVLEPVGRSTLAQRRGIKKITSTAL
# [8] = molecular target: kinases (KINOMEscan panel) (Homo sapiens, UniProt Q13164)
# [9] = molecular target: kinases (KINOMEscan panel) (Homo sapiens, UniProt Q9UEE5)
# [10] = molecular target: kinases (KINOMEscan panel) (Homo sapiens, UniProt O43283)
# [11] = molecular target: kinases (KINOMEscan panel) (Homo sapiens, UniProt Q05397)
# [12] = molecular target: kinases (KINOMEscan panel) (Homo sapiens, UniProt Q9NY57)
# [13] = molecular target: kinases (KINOMEscan panel) (Homo sapiens, UniProt Q14289)
# [14] = molecular target: kinases (KINOMEscan panel) (Homo sapiens, UniProt Q9UK32)
# Sequence of kinases (KINOMEscan panel) (Homo sapiens, UniProt Q9UK32) (Q9UK32 whole entry): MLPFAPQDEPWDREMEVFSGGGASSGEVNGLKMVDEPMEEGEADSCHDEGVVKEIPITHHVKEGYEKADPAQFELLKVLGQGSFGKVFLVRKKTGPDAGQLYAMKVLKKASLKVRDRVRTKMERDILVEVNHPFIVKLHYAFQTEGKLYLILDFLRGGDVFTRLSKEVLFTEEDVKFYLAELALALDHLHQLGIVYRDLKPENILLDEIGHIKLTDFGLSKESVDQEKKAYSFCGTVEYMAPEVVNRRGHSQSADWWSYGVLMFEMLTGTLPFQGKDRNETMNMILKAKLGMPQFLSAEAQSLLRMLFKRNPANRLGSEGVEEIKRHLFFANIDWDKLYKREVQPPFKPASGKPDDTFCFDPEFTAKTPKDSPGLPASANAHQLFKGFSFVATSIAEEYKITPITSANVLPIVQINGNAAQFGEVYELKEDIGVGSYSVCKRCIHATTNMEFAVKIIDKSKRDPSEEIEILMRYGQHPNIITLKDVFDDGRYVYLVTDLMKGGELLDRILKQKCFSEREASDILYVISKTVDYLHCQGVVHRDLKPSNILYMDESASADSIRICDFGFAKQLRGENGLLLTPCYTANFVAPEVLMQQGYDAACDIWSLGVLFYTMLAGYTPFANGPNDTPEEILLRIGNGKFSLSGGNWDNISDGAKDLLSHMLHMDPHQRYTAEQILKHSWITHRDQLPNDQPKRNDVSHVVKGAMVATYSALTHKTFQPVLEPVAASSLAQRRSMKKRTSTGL
# [15] = molecular target: kinases (KINOMEscan panel) (Homo sapiens, UniProt Q15349)
# Sequence of kinases (KINOMEscan panel) (Homo sapiens, UniProt Q15349) (Q15349 whole entry): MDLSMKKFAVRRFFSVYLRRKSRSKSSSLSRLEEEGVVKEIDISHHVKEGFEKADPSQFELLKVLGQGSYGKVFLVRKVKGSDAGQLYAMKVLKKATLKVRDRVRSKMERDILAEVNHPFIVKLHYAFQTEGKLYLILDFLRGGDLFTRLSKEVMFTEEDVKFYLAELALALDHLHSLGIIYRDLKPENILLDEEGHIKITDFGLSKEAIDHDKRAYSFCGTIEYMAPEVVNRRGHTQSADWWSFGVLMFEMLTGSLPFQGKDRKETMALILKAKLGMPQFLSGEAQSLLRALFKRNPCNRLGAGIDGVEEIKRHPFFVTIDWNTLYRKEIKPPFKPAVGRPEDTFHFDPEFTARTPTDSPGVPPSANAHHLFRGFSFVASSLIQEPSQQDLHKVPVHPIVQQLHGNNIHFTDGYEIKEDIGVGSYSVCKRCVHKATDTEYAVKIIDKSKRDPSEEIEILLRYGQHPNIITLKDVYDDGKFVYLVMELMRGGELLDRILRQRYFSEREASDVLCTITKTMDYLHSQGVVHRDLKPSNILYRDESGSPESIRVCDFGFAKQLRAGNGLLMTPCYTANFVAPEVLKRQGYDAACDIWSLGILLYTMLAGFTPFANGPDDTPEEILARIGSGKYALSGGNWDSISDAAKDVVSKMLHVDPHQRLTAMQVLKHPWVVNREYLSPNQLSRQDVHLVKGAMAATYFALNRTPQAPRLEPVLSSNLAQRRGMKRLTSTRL
# [16] = molecular target: kinases (KINOMEscan panel) (Homo sapiens, UniProt O95382)
# [17] = molecular target: kinases (KINOMEscan panel) (Homo sapiens, UniProt Q9Y6E0)
# [18] = molecular target: kinases (KINOMEscan panel) (Homo sapiens, UniProt P35968)
# [19] = molecular target: kinases (KINOMEscan panel) (Homo sapiens, UniProt P36507)
# [20] = molecular target: kinases (KINOMEscan panel) (Homo sapiens, UniProt O75676); settings: NEW KINOMEscan
# Sequence of kinases (KINOMEscan panel) (Homo sapiens, UniProt O75676) (O75676 whole entry): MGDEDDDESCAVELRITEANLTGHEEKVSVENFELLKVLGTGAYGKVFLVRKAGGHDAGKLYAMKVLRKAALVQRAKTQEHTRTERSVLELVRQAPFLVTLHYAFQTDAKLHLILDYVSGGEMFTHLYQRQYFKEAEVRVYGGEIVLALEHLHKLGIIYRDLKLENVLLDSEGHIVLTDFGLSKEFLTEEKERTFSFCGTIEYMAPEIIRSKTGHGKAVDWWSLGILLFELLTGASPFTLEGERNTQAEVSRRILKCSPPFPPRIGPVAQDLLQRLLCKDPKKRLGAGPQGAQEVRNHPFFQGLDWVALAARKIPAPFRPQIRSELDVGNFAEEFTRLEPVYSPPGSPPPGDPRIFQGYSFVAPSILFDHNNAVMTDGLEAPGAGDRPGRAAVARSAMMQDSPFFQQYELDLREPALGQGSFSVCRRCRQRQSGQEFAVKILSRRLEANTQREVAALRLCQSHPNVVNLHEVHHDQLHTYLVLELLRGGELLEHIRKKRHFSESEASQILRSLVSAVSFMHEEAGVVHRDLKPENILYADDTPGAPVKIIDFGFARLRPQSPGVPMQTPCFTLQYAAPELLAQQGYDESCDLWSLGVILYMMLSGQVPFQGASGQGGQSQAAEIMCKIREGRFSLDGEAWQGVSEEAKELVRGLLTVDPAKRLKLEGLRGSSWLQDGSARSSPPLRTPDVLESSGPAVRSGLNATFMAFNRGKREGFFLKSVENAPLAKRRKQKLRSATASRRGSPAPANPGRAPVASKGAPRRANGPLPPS
# [21] = molecular target: kinases (KINOMEscan panel) (Homo sapiens, UniProt Q15418)
# Sequence of kinases (KINOMEscan panel) (Homo sapiens, UniProt Q15418) (Q15418 whole entry): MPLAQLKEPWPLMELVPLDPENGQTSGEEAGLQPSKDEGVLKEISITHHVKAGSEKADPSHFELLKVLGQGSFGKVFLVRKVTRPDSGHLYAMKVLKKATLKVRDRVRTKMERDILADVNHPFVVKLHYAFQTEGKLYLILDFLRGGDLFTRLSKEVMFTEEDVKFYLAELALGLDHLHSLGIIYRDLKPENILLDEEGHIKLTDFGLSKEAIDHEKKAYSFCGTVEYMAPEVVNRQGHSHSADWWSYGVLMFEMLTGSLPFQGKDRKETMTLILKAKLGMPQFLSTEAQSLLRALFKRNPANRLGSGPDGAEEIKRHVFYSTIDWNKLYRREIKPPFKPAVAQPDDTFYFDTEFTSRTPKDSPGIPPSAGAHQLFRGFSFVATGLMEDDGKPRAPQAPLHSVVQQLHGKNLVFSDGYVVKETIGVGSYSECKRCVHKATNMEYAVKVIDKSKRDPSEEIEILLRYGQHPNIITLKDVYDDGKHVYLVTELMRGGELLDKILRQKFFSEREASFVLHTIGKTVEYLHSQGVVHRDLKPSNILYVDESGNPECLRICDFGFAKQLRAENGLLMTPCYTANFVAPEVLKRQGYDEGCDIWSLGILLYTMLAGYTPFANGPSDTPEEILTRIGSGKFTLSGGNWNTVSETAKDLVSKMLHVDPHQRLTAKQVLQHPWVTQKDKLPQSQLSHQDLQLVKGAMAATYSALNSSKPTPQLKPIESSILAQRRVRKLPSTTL
# [22] = molecular target: kinases (KINOMEscan panel) (Homo sapiens, UniProt Q13882)
# [23] = molecular target: kinases (KINOMEscan panel) (Homo sapiens, UniProt Q9NSY1)
# [24] = molecular target: kinases (KINOMEscan panel) (Homo sapiens, UniProt O75582); settings: NEW KINOMEscan
# Sequence of kinases (KINOMEscan panel) (Homo sapiens, UniProt O75582) (O75582 whole entry): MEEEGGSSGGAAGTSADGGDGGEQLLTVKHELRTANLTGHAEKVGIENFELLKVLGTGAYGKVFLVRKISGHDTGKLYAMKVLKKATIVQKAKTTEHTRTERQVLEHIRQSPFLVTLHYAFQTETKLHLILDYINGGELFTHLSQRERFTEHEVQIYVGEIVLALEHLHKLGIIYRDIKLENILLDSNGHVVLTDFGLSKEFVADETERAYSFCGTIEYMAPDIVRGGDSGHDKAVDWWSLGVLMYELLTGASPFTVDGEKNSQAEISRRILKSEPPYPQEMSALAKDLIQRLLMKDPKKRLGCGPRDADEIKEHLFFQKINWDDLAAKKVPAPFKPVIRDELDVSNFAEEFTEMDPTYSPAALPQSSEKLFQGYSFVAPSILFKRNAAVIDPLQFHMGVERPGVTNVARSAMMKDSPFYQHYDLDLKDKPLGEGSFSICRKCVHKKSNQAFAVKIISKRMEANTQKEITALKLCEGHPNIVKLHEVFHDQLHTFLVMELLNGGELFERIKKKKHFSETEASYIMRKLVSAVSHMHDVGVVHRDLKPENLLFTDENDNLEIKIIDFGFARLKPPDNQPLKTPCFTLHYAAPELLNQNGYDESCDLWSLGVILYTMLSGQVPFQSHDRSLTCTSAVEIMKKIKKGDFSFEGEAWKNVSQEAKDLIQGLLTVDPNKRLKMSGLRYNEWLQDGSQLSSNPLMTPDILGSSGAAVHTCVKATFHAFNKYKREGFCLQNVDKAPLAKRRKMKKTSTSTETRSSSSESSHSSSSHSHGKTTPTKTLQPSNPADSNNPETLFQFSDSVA
# [25] = molecular target: kinases (KINOMEscan panel) (Homo sapiens, UniProt P23443)
# Sequence of kinases (KINOMEscan panel) (Homo sapiens, UniProt P23443) (P23443 whole entry): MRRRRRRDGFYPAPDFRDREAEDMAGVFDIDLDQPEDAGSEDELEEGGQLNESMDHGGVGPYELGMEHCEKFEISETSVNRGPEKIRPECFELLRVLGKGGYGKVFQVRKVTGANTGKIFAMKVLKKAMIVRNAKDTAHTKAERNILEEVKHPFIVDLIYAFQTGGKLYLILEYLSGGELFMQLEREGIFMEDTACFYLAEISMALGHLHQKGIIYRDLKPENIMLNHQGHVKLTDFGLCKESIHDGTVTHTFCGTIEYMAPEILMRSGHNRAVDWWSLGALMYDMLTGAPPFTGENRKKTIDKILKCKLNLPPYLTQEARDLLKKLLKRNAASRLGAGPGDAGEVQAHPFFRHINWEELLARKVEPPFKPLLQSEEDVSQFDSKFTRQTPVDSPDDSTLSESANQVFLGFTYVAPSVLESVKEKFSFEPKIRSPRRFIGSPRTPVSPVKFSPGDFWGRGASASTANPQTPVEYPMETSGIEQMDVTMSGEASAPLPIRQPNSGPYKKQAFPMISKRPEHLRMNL
# [26] = molecular target: kinases (KINOMEscan panel) (Homo sapiens, UniProt Q8IY84)
# [27] = molecular target: kinases (KINOMEscan panel) (Homo sapiens, UniProt Q9P289)
# [28] = molecular target: kinases (KINOMEscan panel) (Homo sapiens, UniProt O60285)
# [29] = molecular target: kinases (KINOMEscan panel) (Homo sapiens, UniProt Q86UX6)
# [30] = molecular target: kinases (KINOMEscan panel) (Homo sapiens, UniProt Q9NYL2)
# [31] = molecular target: kinases (KINOMEscan panel) (Homo sapiens, UniProt P52564)
# [32] = molecular target: kinases (KINOMEscan panel) (Homo sapiens, UniProt Q02763)
# [33] = molecular target: kinases (KINOMEscan panel) (Homo sapiens, UniProt P42679)
# [34] = molecular target: kinases (KINOMEscan panel) (Homo sapiens, UniProt Q15831)
# [35] = molecular target: kinases (KINOMEscan panel) (Homo sapiens, UniProt Q02750)
# [36] = molecular target: kinases (KINOMEscan panel) (Homo sapiens, UniProt Q12852)
# [37] = molecular target: kinases (KINOMEscan panel) (Homo sapiens, UniProt P31152)
# [38] = molecular target: kinases (KINOMEscan panel) (Homo sapiens, UniProt Q8NEB9)
# [39] = molecular target: kinases (KINOMEscan panel) (Homo sapiens, UniProt P04629)
# [40] = molecular target: kinases (KINOMEscan panel) (Homo sapiens, UniProt Q13163)
structure (smiles),measurement,setting,value
Cc1cccc(-c2nc(N(C)c3ccc4ncsc4c3)c3ccccc3n2)n1 [NK-161],KINOMEscan SIK3/QSK,[1],0
same,KINOMEscan SBK3/SgK110,[2],0
same,KINOMEscan STK4/MST1,[3],17
same,KINOMEscan MAP3K5/ASK1,[4],0
same,KINOMEscan MAPK3/ERK1,[5],14
same,KINOMEscan STK3/MST2,[6],0
same,KINOMEscan RPS6KA3/RSK2(Kin.Dom.1-N-terminal),[7],5
same,KINOMEscan RPS6KA3/RSK2(Kin.Dom.2-C-terminal),[7],27
same,KINOMEscan MAPK7/ERK5,[8],0
same,KINOMEscan STK17A/DRAK1,[9],0
same,KINOMEscan MAP3K13/LZK,[10],22
same,KINOMEscan PTK2/FAK,[11],0
same,KINOMEscan STK32B/YANK2,[12],17
same,KINOMEscan PTK2B/PYK2,[13],9
same,KINOMEscan RPS6KA6/RSK4(Kin.Dom.1-N-terminal),[14],8
same,KINOMEscan RPS6KA6/RSK4(Kin.Dom.2-C-terminal),[14],4
same,KINOMEscan RPS6KA2/RSK3(Kin.Dom.1-N-terminal),[15],0
same,KINOMEscan RPS6KA2/RSK3(Kin.Dom.2-C-terminal),[15],16
same,KINOMEscan MAP3K6/ASK2,[16],0
same,KINOMEscan STK24/MST3,[17],0
same,KINOMEscan KDR/VEGFR2,[18],4
same,KINOMEscan MAP2K2/MEK2,[19],27
same,KINOMEscan RPS6KA4(Kin.Dom.1-N-terminal),[20]; RPS6KA4(Kin.Dom.1-N-terminal),0
same,KINOMEscan RPS6KA4(Kin.Dom.2-C-terminal),[20]; RPS6KA4(Kin.Dom.2-C-terminal),0
same,KINOMEscan RPS6KA1/RSK1(Kin.Dom.1-N-terminal),[21],9
same,KINOMEscan RPS6KA1/RSK1(Kin.Dom.2-C-terminal),[21],34
same,KINOMEscan PTK6/BRK,[22],0
same,KINOMEscan BMP2K/BIKE,[23],12
same,KINOMEscan RPS6KA5(Kin.Dom.1-N-terminal),[24],21
same,KINOMEscan RPS6KA5(Kin.Dom.2-C-terminal),[24]; kinase RPS6KA5(Kin.Dom.2-C-terminal),0
same,KINOMEscan RPS6KB1/S6K1,[25],0
same,KINOMEscan NIM1K/NIM1,[26],12
same,KINOMEscan STK26/MST4,[27],5
same,KINOMEscan NUAK1/ARK5,[28],0
same,KINOMEscan STK32C/YANK3,[29],18
same,KINOMEscan MAP3K20/ZAK,[30],0
same,KINOMEscan MAP2K6/MEK6,[31],12
same,KINOMEscan TEK/TIE2,[32],13
same,KINOMEscan MATK/CTK,[33],8
same,KINOMEscan STK11/LKB1,[34],0
same,KINOMEscan MAP2K1/MEK1,[35],32
same,KINOMEscan MAP3K12/DLK,[36],0
same,KINOMEscan MAPK4/ERK4,[37],6
same,KINOMEscan PIK3C3/VPS34,[38],0
same,KINOMEscan NTRK1/TRKA,[39],22
same,KINOMEscan MAP2K5/MEK5,[40],0
